Consider 22 compounds from patent US8071508B2, “Process for preparing paste-extruded sulfonamide compositions” (priority 2002, dated 2011).

What is called pKa is the negative logarithm of the acid dissociation constant. As a reminder, the solubility is the concentration that dissolves in the medium under given conditions. A higher solubility goes with a readily soluble substance.

In brackets after ≈: the same amount, converted by molar mass.

The conditions of series [1]: in water at ambient temperatures, typically about 20 to 25° C.; cited from earlier work.
For series [2] the following is noted: cited from earlier work.
A short description of a further series: physchem. To be noted: pH 7, aqueous buffer, thermodynamic from solid. On the procedure:
At least 1 times up to about 5 times the amount of sulfonamide needed for saturation is added to a mixing vessel containing stock buffer solution at the test temperature (e.g., 20° C.). The mixture is magnetically stirred in the dark while being maintained at the test temperature. Samples are periodically removed for analysis. The samples are centrifuged using a high speed, temperature-controlled centrifuge at the test temperature for about 20 minutes at ≧12000 G to remove suspended particles. An aliquot of each supernatant is taken for analysis.
The concentration of sulfonamide in the supernatant is determined by a high pressure liquid chromatography (HPLC) method suitable for the particular sulfonamide. Typically the HPLC method will use a reversed phase chromatography column and UV detection. […] Also, the pH of the supernatant is measured using a calibrated pH meter capable of resolving differences of 0.1 pH units or less to verify that the pH is 7. Samples are successively withdrawn from the mixing vessel and analyzed until three successive samples show little or no variation in concentration. The test is preferably replicated to ensure accuracy.

In the case of `COc1ncc(F)c2nc(S(=O)(=O)Nc3c(F)cccc3F)nn12` [florasulam, N-(2,6-difluorophenyl)-8-fluoro-5-methoxy[1,2,4]triazolo[1,5-c]pyrimidine-2-sulfonamide], the pKa in series [1] is 4.5.
Regarding `O=P([O-])([O-])OP(=O)([O-])[O-].[Na+].[Na+].[Na+].[Na+]` [Na4P2O7, sodium pyrophosphate], in series [2], the “First pKa (conjugate acid)” value was 9.0, the “Second pKa (conjugate acid)” value is given as 7.0 and the “Third pKa (conjugate acid)” value was 2.0.
Turning to “sodium phosphate dodecahydrate [Na3PO4.12H2O]”, in series [2], the “Second pKa (conjugate acid)” value is 7.2 and the “Third pKa (conjugate acid)” value was 2.1.
In the case of “N-[[[2-(cyclopropylcarbonyl)phenyl]amino]sulfonyl]-N^1-(4,6-dimethoxypyrimidin-2-yl)urea [cyclosulfamuron]”, the pKa in series [1] was 5.0.
On to `CCOc1nc(NC)nc(NC(=O)NS(=O)(=O)c2ccccc2C(=O)OC)n1` [ethametsulfuron-methyl, methyl 2-[[[[[4-ethoxy-6-(methylamino)-1,3,5-triazin-2-yl]amino]carbonyl]amino]sulfonyl]benzoate], for which the pKa in series [1] was 4.6.
In the series “physchem”, `COC(=O)c1ccccc1S(=O)(=O)NC(=O)Nc1nc(C)nc(OC)n1` [metsulfuron-methyl, methyl 2-[[[[(4-methoxy-6-methyl-1,3,5-triazin-2-yl)amino]carbonyl]amino]sulfonyl]-benzoate] gave a solubility of 1000 to 10000 µg/mL (≈ 2620 to 26200 µM).
Consider `COc1nc(C)nc(NC(=O)NS(=O)(=O)c2ccccc2OCCCl)n1` [triasulfuron, 2-(2-chloroethoxy)-N-[[(4-methoxy-6-methyl-1,3,5-triazin-2-yl)amino]carbonyl]benzenesulfonamide], for which the pKa in series [1] is listed as 4.6.
Consider `COC(=O)c1ccccc1CS(=O)(=O)NC(=O)Nc1nc(OC)cc(OC)n1` [bensulfuron-methyl, methyl 2-[[[[[(4,6-dimethoxy-2-pyrimidinyl)amino]carbonyl]amino]-sulfonyl]methyl]benzoate], for which, in the series “physchem”, the solubility is less than 1000 µg/mL.
Turning to “methyl 2-[[[[[4,6-bis(trifluoromethoxy)-2-pyrimidinyl]amino]carbonyl]amino]sulfonyl]-benzoate [primisulfuron-methyl]”, the pKa in series [1] is listed as 3.5.
The compound `COC(=O)c1ccccc1S(=O)(=O)NC(=O)N(C)c1nc(C)nc(OC)n1` [tribenuron-methyl, methyl 2-[[[[N-(4-methoxy-6-methyl-1,3,5-triazin-2-yl)-N-methylamino]carbonyl]-amino]sulfonyl]benzoate] showed a solubility in “physchem” of 1000 to 10000 µg/mL (≈ 2530 to 25300 µM).
For `O=C([O-])[O-].[Na+].[Na+]` [Na2CO3, sodium carbonate], in series [2], the “First pKa (conjugate acid)” value was 10.2 and the “Second pKa (conjugate acid)” value is recorded as 6.4.
Take `COCCOc1ccccc1S(=O)(=O)NC(=O)N=c1nc(OC)[nH]c(OC)n1` [cinosulfuron, N-[[(4,6-dimethoxy-1,3,5-triazin-2-yl)amino]carbonyl]-2-(2-methoxyethoxy)benzenesulfonamide]: the pKa in series [1] is 4.7.
On to `O.O=C([O-])[O-].[Na+].[Na+]` [Na2CO3.H2O, sodium carbonate monohydrate], for which, in series [2], the “First pKa (conjugate acid)” value is 10.2 and the “Second pKa (conjugate acid)” value is reported as 6.4.
On to `COC(=O)c1c(Cl)nn(C)c1S(=O)(=O)NC(=O)Nc1nc(OC)cc(OC)n1` [halosulfuron-methyl, methyl 3-chloro-5-[[[[(4,6-dimethoxy-2-pyrimidinyl)amino]carbonyl]amino]sulfonyl]-1-methyl-1H-pyrazole-4-carboxylate], for which the pKa in series [1] is listed as 3.4.
Turning to `O=P([O-])([O-])OP(=O)([O-])[O-].[K+].[K+].[K+].[K+]` [K4P2O7, potassium pyrophosphate], in series [2], the “First pKa (conjugate acid)” value is recorded as 9.0, the “Second pKa (conjugate acid)” value is reported as 7.0 and the “Third pKa (conjugate acid)” value is listed as 2.0.
In the case of `CCOc1nc(F)cc2nc(S(=O)(=O)Nc3c(Cl)cccc3C(=O)OC)nn12` [cloransulam-methyl, methyl 3-chloro-2-[[(5-ethoxy-7-fluoro[1,2,4]-triazolo[1,5-c]pyrimidin-2-yl)sulfonyl]amino]benzoate], the pKa in series [1] is on record as 4.8.
In the case of `COc1cc(OC)nc(NC(=O)NS(=O)(=O)N(C)S(C)(=O)=O)n1` [amidosulfuron, N-[[[[(4,6-dimethoxy-2-pyrimdinyl)amino]carbonyl]amino]-sulfonyl]-N-methylmethanesulfonamide], the pKa in series [1] was 3.6.
Take `CCOC(=O)c1ccccc1S(=O)(=O)NC(=O)Nc1nc(Cl)cc(OC)n1` [chlorimuron-ethyl, ethyl 2-[[[[(4-chloro-6-methoxy-2-pyrimdinyl)amino]carbonyl]amino]sulfonyl]benzoate]: in the series “physchem”, the solubility lay in the range of 1000 to 10000 µg/mL (≈ 2410 to 24100 µM).
On to `CCOC(=O)c1cnn(C)c1S(=O)(=O)NC(=O)Nc1nc(OC)cc(OC)n1` [pyrazosulfuron-ethyl, ethyl 5-[[[[(4,6-dimethoxy-2-pyrimidinyl)amino]carbonyl]amino]sulfonyl]-1-methyl-1H-pyrazole-4-carboxylate], for which the pKa in series [1] was 3.7.
For the compound `O=C([O-])[O-].[K+].[K+]` [K2CO3, potassium carbonate], in series [2], the “First pKa (conjugate acid)” value is 10.2 and the “Second pKa (conjugate acid)” value is given as 6.4.
For the compound `COc1cc(OC)nc(NC(=O)NS(=O)(=O)c2ncccc2OCC(F)(F)F)n1` [trifloxysulfuron, N-[[(4,6-dimethoxy-2-pyrimidinyl)amino]-carbonyl]-3-(2,2,2-trifluoroethoxy)-2-pyridinesulfonamide], in series [1], the pKa was 4.8.
Consider `COC(=O)c1ccccc1S(=O)(=O)NC(=O)Nc1nc(C)cc(C)n1` [sulfometuron-methyl, methyl 2-[[[[(4,6-dimethyl-2-pyrimidinyl)amino]carbonyl]amino]sulfonyl]benzoate], for which the solubility in “physchem” is less than 1000 µg/mL.
